Measurements: article PMC3715888, “A Fully Unsupervised Compartment-on-Demand Platform for Precise Nanoliter Assays of Time-Dependent Steady-State Enzyme Kinetics and Inhibition” (Analytical Chemistry, 2013)
pKi: −log10 of the molar value. Where a name gives a salt, the structure may show the parent alone.

Target: sweet almond β-glucosidase
Assay: droplet absorbance assay of 4-nitrophenyl glucopyranoside hydrolysis ([…] nm); IC50 […] converted to Ki by Cheng-Prusoff
Format: biochemical, Prunus dulcis

OC[C@H]1NC[C@H](O)[C@@H](O)[C@@H]1O [DNM, 1-deoxynojirimycin hydrochloride]
pKi: ~4.44
